In patent US8835466B2, “Synthesis and uses of pyroglutamic acid derivatives” (Prodimed, S.A., priority 2006, dated 2014):

System: KLN 205 cells (lung cell carcinoma)
Test: Effect of 9d and Cisplatin on KLN 205 tumour growth after subcutaneous, intradermal or intramuscular inoculation (Example 12)
Type: in vivo, DBA/2 mice
Details: for SURFACE Overall values (Mean) / SURFACE Overall values (Median) / VOLUME Overall values (Mean) / VOLUME Overall values (Median): Groups B2-B4 (9d 250 ng, Cisplatin 65 μg, or both)
Procedure: This was carried out by measuring two perpendicular diameters (d1/d2) with a calliper. These measures were used to obtain both tumour surface and volume: […] Results were expressed as single values and/or as the mean±SD or median from each experimental group. This assay was made in order to check the effect on in vivo tumour growth in mice challenged with KLN 205 cells. Tumours where established by subcutaneous, intradermal or intramuscular inoculation. The effect of the combination of cisplatin and/or Isomer (9d) was compared with placebo in mice challenged intradermally. […] KLN 205 is a lung cell carcinoma originated in DBA/2 mouse strain, and therefore syngeneic in mice with DBA/2 genetic background (Kaneko T and […]. Growth characteristics and drug responses of a murine lung carcinoma in vitro and in vivo. Cancer Research. 38: 2084-2090; 1978). KLN 205 cells (CLS, Eppelheim, Germany) were maintained in vitro by serial passages every 3-4 days. […] Louis, Mo., USA) by seeding 5×10^6 cells onto 75 cm^2 culture flasks. Subcultures were carried out by collecting detached cells after treatment with trypsin-EDTA (Sigma, St. Louis, Mo., USA). Tumour cells, collected from 48 hour cultures, were used as source of KLN 205 cells for the studies described below. […] Tumours were established by subcutaneous and intradermal inoculation in the right hind flank, and intramuscular in the right hind leg. Mice (DBA/2) were inoculated with 0.05 mL containing 2×10^5 viable KLN 205 cells. The day of subcutaneous, intradermal and intramuscular inoculation will be considered Day 0 of the test. A case-control study was performed with treated and control mice in order to determine whether differences between placebo, 9d, Cisplatin or 9d+Cisplatin were present. The data obtained (tumour surface and volume) were tested for Normal distribution within the groups (Kolmogorov Smirnov test p<0.05). […] The U-test of Mann Withney was chosen for being one of the better known non-parametrical tests, anyway, results for this test are equivalent both to those of Wilcoxon's sum of ranges and Kruskal-Wallis two-groups test.

[1] = day 10 after tumour inoculation
[2] = day 13 after tumour inoculation
[3] = day 17 after tumour inoculation
[4] = day 20 after tumour inoculation
[5] = day 24 after tumour inoculation
[6] = day 27 after tumour inoculation
[7] = day 31 after tumour inoculation

What does the source list for N.N.[Cl][Pt][Cl] [Cisplatin, reference compound]?
SURFACE Overall values (Mean) (day 0 after tumour inoculation): 0 mm^2; SURFACE Overall values (Median) (day 0 after tumour inoculation): 0 mm^2; VOLUME Overall values (Mean) (day 0 after tumour inoculation): 0 mm^3; VOLUME Overall values (Median) (day 0 after tumour inoculation): 0 mm^3; SURFACE Overall values (Mean) [1]: 7.3 mm^2; SURFACE Overall values (Median) [1]: 6.5 mm^2; VOLUME Overall values (Mean) [1]: 11.05 mm^3; VOLUME Overall values (Median) [1]: 8.75 mm^3; SURFACE Overall values (Mean) [2]: 20 mm^2; SURFACE Overall values (Median) [2]: 20 mm^2; VOLUME Overall values (Mean) [2]: 43.6 mm^3; VOLUME Overall values (Median) [2]: 40 mm^3; SURFACE Overall values (Mean) [3]: 38.3 mm^2; SURFACE Overall values (Median) [3]: 33 mm^2; VOLUME Overall values (Mean) [3]: 115.95 mm^3; VOLUME Overall values (Median) [3]: 91.5 mm^3; SURFACE Overall values (Mean) [4]: 62.2 mm^2; SURFACE Overall values (Median) [4]: 56 mm^2; VOLUME Overall values (Mean) [4]: 233.5 mm^3; VOLUME Overall values (Median) [4]: 196 mm^3; SURFACE Overall values (Mean) [5]: 93.7 mm^2; SURFACE Overall values (Median) [5]: 96 mm^2; VOLUME Overall values (Mean) [5]: 408.05 mm^3; VOLUME Overall values (Median) [5]: 384 mm^3; SURFACE Overall values (Mean) [6]: 124.1 mm^2; SURFACE Overall values (Median) [6]: 129 mm^2; VOLUME Overall values (Mean) [6]: 642.55 mm^3; VOLUME Overall values (Median) [6]: 646.5 mm^3; SURFACE Overall values (Mean) [7]: 151.3 mm^2; SURFACE Overall values (Median) [7]: 155 mm^2; VOLUME Overall values (Mean) [7]: 848.95 mm^3; VOLUME Overall values (Median) [7]: 775 mm^3; Inhibition of the in vivo growth of intradermal KLN 205 cells, in words (intradermal inoculation): inhibit the in vivo growth; Differences in intradermal KLN 205 tumour growth rate vs. placebo, statistical significance p (Mann-Whitney U test) (intradermal inoculation, surface or volume, days 17th, 20th and 31th): < 0.05
